Assay results published in publication PMC9027599, “Secondary Metabolites in Basil, Bio-Insecticide, Inhibition Effect, and In Silico Molecular Docking against Proteolytic Enzymes of the Red Palm Weevil (Rhynchophorus ferrugineus)” (Plants, 2022).

Experiments:
[1] = tested on: R. ferrugineus fourth larvae; test: Topical application (contact insecticide) on larvae; type: in vivo, Rhynchophorus ferrugineus; conditions: 4th larvae, probit analysis, 95% confidence limits in brackets
Method: The R. ferrugineus adult and larvae were acquired from an insect breeding lab at King Faisal University’s Date Palm Research Center of Excellence and grown utilizing sugarcane stem long pieces. The extracts activity against larvae was determined by using topical application method with storing larvae at 4–5 °C for 5 min. Previous serial concentrations of extract (10 µL) were applied to the dorsum of each larvae using a hand-operated micro-applicator (Burkard Manufacturing Co., Ltd., Hertfordshire, UK with a 50-ll micro-syringe (MS-N50; Ito Corp., Shizuoka, Japan). Each larva was feeding on 10 cm stem pieces of long sugarcane, with 5 larvae/box with three replicates. After topical administration, larval mortality was determined after 24, 48, 72, and 96 h to determine the LD50. Adults were tested for antifeedant effect determined using ten-centimeter-long sections of sugarcane stem divided into equal longitudinal halves. Pieces of long sections of sugarcane stem with area ~32.2 cm^2 were dipped for ten seconds in the previous serial concentration of extract (10 mL) and, then, dried in room temperature air. […] Each package received a replacement pair (male and female). Each treatment was replicated ten times. After 24, 48, 72, and 96 h, feeding observations were assayed.
Finney states that the statistical analysis and probit analysis were conducted using the SPSS 25.0 program (Statistical Package for Social Sciences, Armonk, NY, USA). Chemical components were determined by PCA using SPSS 25.0 program and presented using XLSTAT 2018.1. PCA is a clustering technique that is used to determine the relationships between samples. […] We did a mortality against dosage regression and converted the resultant median dose to an LC50 value (µg/mL). The range of LC50 was calculated with a 95 percent confidence interval using least-squares. We conducted a one-way analysis of variance on the enzyme activity data (ANOVA). The Student–Newman–Keuls (SNK) test was applied with separate means, and differences at p ≤ 0.05 were considered significant.

cysteine protease = test: Cysteine proteinase activity, Z-Phe-Arg-MNA (in vitro); type: biochemical, Rhynchophorus ferrugineus; conditions: fourth instar larvae midgut homogenate
Method: The activity of cysteine proteinase was determined in the fourth midgut instar larval homogenate of R. ferrugineus using the substrate Z-Phe-Arg-MNA [1]. Ten larvae were carefully removed, dissected, and rinsed repeatedly with NaCl solution (0.9% (w/v). The midgut instar was homogenized in protease assay buffer (500 µL) [5 mM DTT, 50 mM HEPS (N-2-Hydroxyethyl piperazin-N’-2-ethanesulfonic acid), pH 8.0, and 0.1 percent Triton X-100]. The reaction mixture was centrifuged for 30 min at 5000 rpm (Sigma 3k30 cooling centrifuge). The supernatant was utilized to determine the overall activity of proteolytic enzymes and the protein content. The supernatant (10 µL) was incubated for 30 min at 37 °C, and the volume was adjusted to 60 µL using assay buffer (pH 8) before adding 100 µL of substrate (0.5 mM). Prior to adding the substrate, 10 µL enzyme samples were pre-incubated with iodoacetic acid for 10 min. After 60 min at 37 °C of mixture incubation, the reaction was halted with the addition of 1.5 mL mersalyl (5 mM), 0.02 mg/mL fast garnet reactive solution, and 2% Tween 20. The reaction was centrifuged (at 5000 rpm, 6 min), then the absorbance was determined (at 520 nm). The activity of cysteine proteinase was measured using an ELISA quick plate reader at the OD520/60 min/mg of midgut protein. As a blank, a test mixture devoid of enzyme was used. […] The fourth homogenates of midgut larval were produced as reported before in the experiment for determining enzyme activity. As previously disclosed, the inhibitory experiment was performed using a microplate assay. A series of inhibitor concentrations was created to determine the inhibitor’s maximal inhibitory effect. Leupeptin concentrations of 0.01, 0.05, 0.1, and 1.0 mM, PMSF concentrations of 0.1, 1.0, 10, and 50 mM, TLCK and TPCK concentrations of 0.01, 0.05, 0.1, 1, 50, and 100 mM, EDTA concentrations of 0.1, 1, 10, 50, and 100 mM, and iodoacetic acid concentrations of 0.01, 0.05, 0.1, and 1 mM.
As a control, an assay combination devoid of inhibitors was utilized. The absorbance of the enzymes was determined using an ELISA plate quick reader at various wavelengths. The percentage activity of the control enzyme for each inhibitor was evaluated for each enzyme. Protease activity was assayed in vivo in the R. ferrugineus fourth midgut larval instars, which were treated with 1, 10, 50, 100, 500, 1000, and 5000 mg/L of extracts or compounds, measured as described above. Larvae were exposed for 24 h to leaf discs treated with extract and compounds.

metalloprotease = test: Metalloproteinase activity, azocasein (in vitro); type: biochemical, Rhynchophorus ferrugineus; conditions: fourth instar larvae midgut homogenate
Method: A substrate azocasein assessed the metalloproteinases activity in the fourth midgut instar larval homogenate. Ten larvae were carefully removed, dissected, and rinsed repeatedly with NaCl solution (0.9% (w/v). […] After homogenization, the homogenates were centrifuged at 5000 rpm (for 30 min) using a Sigma centrifuge 3k30, and the supernatant was utilized to determine enzyme activity and protein content. The supernatant per experiment (10 µL) was incubated for 20 min at 37 °C, and the volume was adjusted to 60 µL using assay buffer pH 8 before adding azocasein (200 µL, 2% (w/v)). In all instances, 10 µL enzyme samples were incubated for 10 min (except EDTA with 20 min), and EDTA was used as a blocker of metalloproteinase activity before being added to the specific substrate. The reaction was interrupted with 300 µL of trichloroacetic acid (TCA cold, 10% (v/v) and continued at 37 °C for 180 min. The reaction mixture was then centrifuged at 5000 rpm for 20 min (Sigma centrifuge 3k30), sodium hydroxide (10 µL of 10 N) was incorporated into the supernatant, then absorbance was determined using an ELISA plate reader at 450 nm. As a blank, an assay mixture devoid of the enzyme was devoted, the specific activity was determined using the OD450 mg^−1 protein min^−1 value, and a blank solution sample devoid of enzyme solution was determined. To learn more about the proteases found in homogenate preparations of R. ferrugineus fourth midgut larval instars, inhibitors from many different types of mechanisms were used. […] As a control, an assay combination devoid of inhibitors was utilized. The absorbance of the enzymes was determined using an ELISA plate quick reader at various wavelengths. The percentage activity of the control enzyme for each inhibitor was evaluated for each enzyme. […] Larvae were exposed for 24 h to leaf discs treated with extract and compounds.

| Compound | LD50 [1] | IC50 against cysteine protease (in vitro) (cysteine protease) | IC50 against metalloprotease (in vitro) (metalloprotease) |
| --- | --- | --- | --- |
| COc1ccc(-c2cc(=O)c3c(O)c(OC)c(OC)cc3o2)cc1 [Salvigenin, 5-Hydroxy-6,7,4′-trimethoxyflavone] | 11.4 (10.4–11.8) µg/Larvae | 89.6 µg/mL | 49.1 µg/mL |
| C[C@@H]1O[C@@H](OC[C@H]2O[C@@H](Oc3c(-c4ccc(O)c(O)c4)oc4cc(O)cc(O)c4c3=O)[C@H](O)[C@@H](O)[C@@H]2O)[C@H](O)[C@H](O)[C@H]1O [Quercetin-3-O-rutinoside] | 16.9 (15.1–17.6) µg/Larvae | 53.6 µg/mL | 37.3 µg/mL |
| O=C(O)C[C@H](C(=O)O)[C@@H](O)C(=O)O [Isocitric acid] | 23.9 (21.1–24.6) µg/Larvae | 119.1 µg/mL | 127.8 µg/mL |
| O=C(/C=C/c1ccc(O)c(O)c1)O/C=C\c1ccc(O)c(O)c1 [Nepetoidin B] | 11.9 (11.1–12.3) µg/Larvae | 63.3 µg/mL | 51.1 µg/mL |
| O=C(/C=C/c1ccc(O)c(O)c1)O[C@H](Cc1ccc(O)c(O)c1)C(=O)O [Rosmarinic acid] | 12.4 (11.8–12.7) µg/Larvae | 67.8 µg/mL | 48.4 µg/mL |
| dicaffeoyl-tartaric acid [Chicoric acid] | 10.23 (9.87–10.94) µg/Larvae | 81.2 µg/mL | 44.6 µg/mL |
